{"source": "patent US20090226527A1", "about": "“Particulate-stabilized injectable pharmacutical compositions of posaconazole” (priority 2004, published 2009)", "test_system": "infectious agents (strains tested)", "assay": "organism not typed", "type": "cell-based", "data": [{"compound": "C[C@@H](c1ncncc1F)[C@](O)(Cn1cncn1)c1ccc(F)cc1F", "note": "[Voriconazole]", "values": [{"measurement": "MIC", "setting": "Absidia spp, read-out: Geometric Mean MIC", "result": 40.3, "unit": "µg/mL"}, {"measurement": "MIC", "setting": "Absidia spp, read-out: MIC[90]", "result": "8 to 128", "unit": "µg/mL"}, {"measurement": "MIC", "setting": "Apophysomyces spp, read-out: Geometric Mean MIC", "result": 42.2, "unit": "µg/mL"}, {"measurement": "MIC", "setting": "Apophysomyces spp, read-out: MIC[90]", "result": "16 to 128", "unit": "µg/mL"}, {"measurement": "MIC", "setting": "Aspergillus flavus, read-out: Geometric Mean MIC", "result": 0.339, "unit": "µg/mL"}, {"measurement": "MIC", "setting": "Aspergillus flavus, read-out: MIC[90]", "result": 1, "unit": "µg/mL"}, {"measurement": "MIC", "setting": "Aspergillus fumigatus, read-out: Geometric Mean MIC", "result": 0.282, "unit": "µg/mL"}, {"measurement": "MIC", "setting": "Aspergillus fumigatus, read-out: MIC[90]", "result": 0.5, "unit": "µg/mL"}, {"measurement": "MIC", "setting": "Aspergillus nidulans, read-out: Geometric Mean MIC", "result": 0.07, "unit": "µg/mL"}, {"measurement": "MIC", "setting": "Aspergillus nidulans, read-out: MIC[90]", "result": "0.031 to 0.125", "unit": "µg/mL"}, {"measurement": "MIC", "setting": "Aspergillus niger, read-out: Geometric Mean MIC", "result": 0.48, "unit": "µg/mL"}, {"measurement": "MIC", "setting": "Aspergillus niger, read-out: MIC[90]", "result": 2, "unit": "µg/mL"}, {"measurement": "MIC", "setting": "Aspergillus sydowii, read-out: Geometric Mean MIC", "result": 0.397, "unit": "µg/mL"}, {"measurement": "MIC", "setting": "Aspergillus sydowii, read-out: MIC[90]", "result": "0.25 to 1", "unit": "µg/mL"}, {"measurement": "MIC", "setting": "Aspergillus terreus, read-out: Geometric Mean MIC", "result": 0.312, "unit": "µg/mL"}, {"measurement": "MIC", "setting": "Aspergillus terreus, read-out: MIC[90]", "result": 0.5, "unit": "µg/mL"}, {"measurement": "MIC", "setting": "Aspergillus ustus, read-out: Geometric Mean MIC", "result": 1.19, "unit": "µg/mL"}, {"measurement": "MIC", "setting": "Aspergillus ustus, read-out: MIC[90]", "result": "0.25 to 2", "unit": "µg/mL"}, {"measurement": "MIC", "setting": "Bipolaris spp, read-out: Geometric Mean MIC", "result": 1, "unit": "µg/mL"}, {"measurement": "MIC", "setting": "Bipolaris spp, read-out: MIC[90]", "result": 1, "unit": "µg/mL"}, {"measurement": "MIC", "setting": "Bjerkandera adusta, read-out: Geometric Mean MIC", "result": 0.216, "unit": "µg/mL"}, {"measurement": "MIC", "setting": "Bjerkandera adusta, read-out: MIC[90]", "result": 0.25, "unit": "µg/mL"}, {"measurement": "MIC", "setting": "Candida albicans, read-out: Geometric Mean MIC", "result": 0.021, "unit": "µg/mL"}, {"measurement": "MIC", "setting": "Candida albicans, read-out: MIC[90]", "result": 0.063, "unit": "µg/mL"}, {"measurement": "MIC", "setting": "Candida dubliniensis, read-out: Geometric Mean MIC", "result": 0.028, "unit": "µg/mL"}, {"measurement": "MIC", "setting": "Candida dubliniensis, read-out: MIC[90]", "result": 0.125, "unit": "µg/mL"}, {"measurement": "MIC", "setting": "Candida tropicalis, read-out: Geometric Mean MIC", "result": 0.075, "unit": "µg/mL"}, {"measurement": "MIC", "setting": "Candida tropicalis, read-out: MIC[90]", "result": 0.5, "unit": "µg/mL"}, {"measurement": "MIC", "setting": "Clavispora lusitaniae, Candida lusitaniae, read-out: Geometric Mean MIC", "result": 0.023, "unit": "µg/mL"}, {"measurement": "MIC", "setting": "Clavispora lusitaniae, Candida lusitaniae, read-out: MIC[90]", "result": 0.063, "unit": "µg/mL"}, {"measurement": "MIC", "setting": "Cryptococcus neoformans, read-out: Geometric Mean MIC", "result": 0.054, "unit": "µg/mL"}, {"measurement": "MIC", "setting": "Cryptococcus neoformans, read-out: MIC[90]", "result": 0.125, "unit": "µg/mL"}, {"measurement": "MIC", "setting": "Curvularia spp, read-out: Geometric Mean MIC", "result": 0.125, "unit": "µg/mL"}, {"measurement": "MIC", "setting": "Curvularia spp, read-out: MIC[90]", "result": 0.125, "unit": "µg/mL"}, {"measurement": "MIC", "setting": "Debaryomyces hansenii, Candida famata, read-out: Geometric Mean MIC", "result": 0.072, "unit": "µg/mL"}, {"measurement": "MIC", "setting": "Debaryomyces hansenii, Candida famata, read-out: MIC[90]", "result": "0.008 to 0.5", "unit": "µg/mL"}, {"measurement": "MIC", "setting": "Diutina rugosa, Candida rugosa, read-out: Geometric Mean MIC", "result": 0.072, "unit": "µg/mL"}, {"measurement": "MIC", "setting": "Diutina rugosa, Candida rugosa, read-out: MIC[90]", "result": 0.5, "unit": "µg/mL"}, {"measurement": "MIC", "setting": "Dujonia zeylanoides, Candida zeylanoides, read-out: Geometric Mean MIC", "result": 0.039, "unit": "µg/mL"}, {"measurement": "MIC", "setting": "Dujonia zeylanoides, Candida zeylanoides, read-out: MIC[90]", "result": "0.008 to 0.125", "unit": "µg/mL"}, {"measurement": "MIC", "setting": "Epidermophyton floccosum, read-out: Geometric Mean MIC", "result": 0.015, "unit": "µg/mL"}, {"measurement": "MIC", "setting": "Epidermophyton floccosum, read-out: MIC[90]", "result": 0.016, "unit": "µg/mL"}, {"measurement": "MIC", "setting": "Exophiala dermatidis, read-out: Geometric Mean MIC", "result": 0.063, "unit": "µg/mL"}, {"measurement": "MIC", "setting": "Exophiala dermatidis, read-out: MIC[90]", "result": 0.063, "unit": "µg/mL"}, {"measurement": "MIC", "setting": "Exophiala dermatitidis, Wangiella dermatitidis, read-out: Geometric Mean MIC", "result": 1, "unit": "µg/mL"}, {"measurement": "MIC", "setting": "Exophiala dermatitidis, Wangiella dermatitidis, read-out: MIC[90]", "result": 1, "unit": "µg/mL"}, {"measurement": "MIC", "setting": "Exophiala jeanselmei, read-out: Geometric Mean MIC", "result": 0.794, "unit": "µg/mL"}, {"measurement": "MIC", "setting": "Exophiala jeanselmei, read-out: MIC[90]", "result": "0.5 to 1", "unit": "µg/mL"}, {"measurement": "MIC", "setting": "Fonsecae pedrosoi, read-out: Geometric Mean MIC", "result": 0.5, "unit": "µg/mL"}, {"measurement": "MIC", "setting": "Fonsecae pedrosoi, read-out: MIC[90]", "result": 0.5, "unit": "µg/mL"}, {"measurement": "MIC", "setting": "Fusarium spp, read-out: Geometric Mean MIC", "result": 4.42, "unit": "µg/mL"}, {"measurement": "MIC", "setting": "Fusarium spp, read-out: MIC[90]", "result": 16, "unit": "µg/mL"}, {"measurement": "MIC", "setting": "Kluyveromyces marxianus, Candida kefyr, read-out: Geometric Mean MIC", "result": 0.031, "unit": "µg/mL"}, {"measurement": "MIC", "setting": "Kluyveromyces marxianus, Candida kefyr, read-out: MIC[90]", "result": 0.031, "unit": "µg/mL"}, {"measurement": "MIC", "setting": "Lodderomyces parapsilosis, Candida parapsilosis, read-out: Geometric Mean MIC", "result": 0.036, "unit": "µg/mL"}, {"measurement": "MIC", "setting": "Lodderomyces parapsilosis, Candida parapsilosis, read-out: MIC[90]", "result": 0.125, "unit": "µg/mL"}, {"measurement": "MIC", "setting": "Meyerozyma guilliermondii, Candida guilliermondii, read-out: Geometric Mean MIC", "result": 0.112, "unit": "µg/mL"}, {"measurement": "MIC", "setting": "Meyerozyma guilliermondii, Candida guilliermondii, read-out: MIC[90]", "result": 8, "unit": "µg/mL"}, {"measurement": "MIC", "setting": "Microsporum canis, read-out: Geometric Mean MIC", "result": 0.018, "unit": "µg/mL"}, {"measurement": "MIC", "setting": "Microsporum canis, read-out: MIC[90]", "result": 0.031, "unit": "µg/mL"}, {"measurement": "MIC", "setting": "Mucor spp, read-out: Geometric Mean MIC", "result": 24.7, "unit": "µg/mL"}, {"measurement": "MIC", "setting": "Mucor spp, read-out: MIC[90]", "result": "1 to 128", "unit": "µg/mL"}, {"measurement": "MIC", "setting": "Nakaseomyces glabratus, Candida glabrata, read-out: Geometric Mean MIC", "result": 0.305, "unit": "µg/mL"}, {"measurement": "MIC", "setting": "Nakaseomyces glabratus, Candida glabrata, read-out: MIC[90]", "result": 2, "unit": "µg/mL"}, {"measurement": "MIC", "setting": "Paecilomyces spp, read-out: Geometric Mean MIC", "result": 0.324, "unit": "µg/mL"}, {"measurement": "MIC", "setting": "Paecilomyces spp, read-out: MIC[90]", "result": "0.031 to 2", "unit": "µg/mL"}, {"measurement": "MIC", "setting": "Papiliotrema laurentii, Cryptococcus laurentii, read-out: Geometric Mean MIC", "result": 0.25, "unit": "µg/mL"}, {"measurement": "MIC", "setting": "Papiliotrema laurentii, Cryptococcus laurentii, read-out: MIC[90]", "result": 0.25, "unit": "µg/mL"}, {"measurement": "MIC", "setting": "Penicillium spp, read-out: Geometric Mean MIC", "result": 0.622, "unit": "µg/mL"}, {"measurement": "MIC", "setting": "Penicillium spp, read-out: MIC[90]", "result": 2, "unit": "µg/mL"}, {"measurement": "MIC", "setting": "Pichia kudriavzevii, Candida krusei, read-out: Geometric Mean MIC", "result": 0.346, "unit": "µg/mL"}, {"measurement": "MIC", "setting": "Pichia kudriavzevii, Candida krusei, read-out: MIC[90]", "result": 0.5, "unit": "µg/mL"}, {"measurement": "MIC", "setting": "Rhizomucor spp, read-out: Geometric Mean MIC", "result": 2, "unit": "µg/mL"}, {"measurement": "MIC", "setting": "Rhizomucor spp, read-out: MIC[90]", "result": 2, "unit": "µg/mL"}, {"measurement": "MIC", "setting": "Rhizopus spp, read-out: Geometric Mean MIC", "result": 8, "unit": "µg/mL"}, {"measurement": "MIC", "setting": "Rhizopus spp, read-out: MIC[90]", "result": "1 to 32", "unit": "µg/mL"}, {"measurement": "MIC", "setting": "Saccharomyces cerevisiae, read-out: Geometric Mean MIC", "result": 0.05, "unit": "µg/mL"}, {"measurement": "MIC", "setting": "Saccharomyces cerevisiae, read-out: MIC[90]", "result": 0.125, "unit": "µg/mL"}, {"measurement": "MIC", "setting": "Scedosporium apiospermum, read-out: Geometric Mean MIC", "result": 0.098, "unit": "µg/mL"}, {"measurement": "MIC", "setting": "Scedosporium apiospermum, read-out: MIC[90]", "result": 0.5, "unit": "µg/mL"}, {"measurement": "MIC", "setting": "Scedosporium boydii, Pseudallescheria boydii, read-out: Geometric Mean MIC", "result": 0.25, "unit": "µg/mL"}, {"measurement": "MIC", "setting": "Scedosporium boydii, Pseudallescheria boydii, read-out: MIC[90]", "result": "0.125 to 0.5", "unit": "µg/mL"}, {"measurement": "MIC", "setting": "Trichophyton mentagrophytes, read-out: Geometric Mean MIC", "result": 0.038, "unit": "µg/mL"}, {"measurement": "MIC", "setting": "Trichophyton mentagrophytes, read-out: MIC[90]", "result": 0.25, "unit": "µg/mL"}, {"measurement": "MIC", "setting": "Trichophyton rubrum, read-out: Geometric Mean MIC", "result": 0.021, "unit": "µg/mL"}, {"measurement": "MIC", "setting": "Trichophyton rubrum, read-out: MIC[90]", "result": 0.063, "unit": "µg/mL"}, {"measurement": "MIC", "setting": "Trichophyton tonsurans, read-out: Geometric Mean MIC", "result": 0.043, "unit": "µg/mL"}, {"measurement": "MIC", "setting": "Trichophyton tonsurans, read-out: MIC[90]", "result": 0.063, "unit": "µg/mL"}, {"measurement": "MIC", "setting": "Trichosporon spp, read-out: Geometric Mean MIC", "result": 0.125, "unit": "µg/mL"}, {"measurement": "MIC", "setting": "Trichosporon spp, read-out: MIC[90]", "result": 0.125, "unit": "µg/mL"}]}]}
